Assay results reported in patent US6887896B1, “7-[(7-Alkoxy)-chrom-3-en-6-yl]-heptatrienoic acid and 7-[(3-alkoxy)-5,6-dihydronaphthalen-2-yl]-heptatrienoic acid derivatives having serum glucose reducing activity” (Allergan, Inc., priority 2003, dated 2005).

Columns and labels:
ob/ob mice [1] = assay: serum glucose, triglycerides and T4 in ob/ob mice, drug mixed in control diet over 7 days; assay type: in vivo; conditions: 30 mg/kg per day in diet; for Glucose Day 0 / Triglycerides Day 0: day 0 (pre-treatment)
ob/ob mice [2] = assay: serum glucose, triglycerides and T4 in diabetic mice, oral gavage in corn oil daily for seven days; assay type: in vivo; conditions: for Glucose Day 0 / Triglycerides Day 0: day 0 (pre-treatment)
RARγ = biological target: T1, RARγ (Homo sapiens, UniProt P13631); assay: chimeric receptor transactivation assay, RARγ; assay type: cell-based; conditions: read-out: RAR Trans. EC50 γ
T1 sequence (P13631 185-419 limits assumed): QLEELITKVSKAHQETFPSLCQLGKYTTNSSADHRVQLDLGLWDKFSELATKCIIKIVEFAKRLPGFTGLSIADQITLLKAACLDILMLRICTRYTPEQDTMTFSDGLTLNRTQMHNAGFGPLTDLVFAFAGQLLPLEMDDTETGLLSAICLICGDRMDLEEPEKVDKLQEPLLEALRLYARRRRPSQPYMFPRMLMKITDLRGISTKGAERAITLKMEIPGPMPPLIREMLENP
Description: Specifically, one such assay is a chimeric receptor transactivation assay which tests for agonist-like activity in the R RAPE and RAR7 receptor subtypes, and which is based on work published by Feigner, P. L. and Holm, M (1989) Focus, 112 is described in detail in U.S. Pat. No. 5,455,265. The specification of U.S. Pat. No. 5,455,265 is hereby expressly incorporated by reference. A holoreceptor transactivation assay and a ligand binding assay which measure the antagonist/agonist like activity of the compounds of the invention, or their ability to bind to the several retinoid receptor subtypes, respectively, are described in published PCT Application No. WO WO93/11755 (particularly on pages 30-33 and 37-41) published on Jun. 24, 1993, the specification of which is also incorporated herein by reference. A detailed experimental procedure for holoreceptor transactivations has been described by Heyman et al. Cell 68, 397-406, (1992); Allegretto et al. J. Biol. Chem. 268, 26625-26633, and Mangelsdorf et al. The Retinoids: Biology, Chemistry and Medicine, pp 319-349, Raven Press Ltd., New York, which are expressly incorporated herein by reference. The results obtained in this assay are expressed in EC50 numbers, as they are also in the chimeric receptor transactivation assay. The results of the ligand binding assay are expressed in Ki numbers. […]
Efficacy in a transactivation assay is expressed as a percentage of the maximum potency attained by the compound compared to a standard which, in this case, is the compound named (2E,4E,1′S,2′S)-3-methyl-5-[2′-methyl-2′-(5,5,8,8-tetramethyl-5,6,7,8-tetrahydro-naphthalen-2-yl)-cyclopropyl]-penta-2,4-dienoic acid. […]
Generally speaking, in the tables disclosing the results of transactivation and binding assays the numbers in parentheses indicate efficacy as a percentage compared to the standard compound, (2E,4E,1′S,2′S)-3-methyl-5-[2′-methyl-2′-(5,5,8,8-tetramethyl-5,6,7,8-tetrahydro-naphthalen-2-yl)cyclopropyl]-penta-2,4-dienoic acid and the other numbers indicate the measured EC50 and K; in nanomolar concentration.

[3] = 50 mg/kg, corn oil vehicle (Table 7)
[4] = 80 mg/kg, corn oil vehicle (second Table 9)

Question: CCOc1c(\C(C)=C/C=C/C(C)=C/C(=O)O)cc2c(c1Cl)OC(C)(C)C=C2C(C)C [Compound 50, 7-(8-Chloro-4-isopropyl-7-ethoxy-2,2-dimethyl-2H-chromen-6-yl)-3-methyl-octa-2E,4E,6Z-trienoic acid] was tested. Which “Glucose Day 3, 3 h” value (ob/ob mice [1]) did it give?
Answer: 209 mg/dL

Question: What about the “Glucose Day 6, 3 h” value (ob/ob mice [1]) of the same compound?
Answer: 237 mg/dL

Question: And the “T4 Day 7” value (ob/ob mice [1])?
Answer: 4.5 µg/dL

Question: And the “Triglycerides Day 3, 3 h” value (ob/ob mice [1])?
Answer: 90 ± 33 mg/dL

Question: What about the “Glucose Day 0” value (ob/ob mice [1]) of the same compound?
Answer: 288 mg/dL

Question: And the “Triglycerides Day 0” value (ob/ob mice [1])?
Answer: 122 mg/dL

Question: Which “Glucose Day 3, 3 h” value (ob/ob mice [1]) does the source give for CCOc1c(\C(C)=C(F)/C=C/C(C)=C/C(=O)O)cc2c(c1Cl)OC(C)(C)C=C2C(C)C [Compound 172, 7-(8-Chloro-4-isopropyl-7-ethoxy-2,2-dimethyl-2H-chromen-6-yl)-6-fluoro-3-methyl-octa-2E,4E,6E-trienoic acid] here?
Answer: 193 mg/dL

Question: What about the “Glucose Day 6, 3 h” value (ob/ob mice [1]) of the same compound?
Answer: 206 mg/dL

Question: What about the “T4 Day 7” value (ob/ob mice [1]) of the same compound?
Answer: 4.5 µg/dL

Question: What about the “Triglycerides Day 3, 3 h” value (ob/ob mice [1]) of the same compound?
Answer: 68 ± 22 mg/dL

Question: What about the “Glucose Day 0” value (ob/ob mice [1]) of the same compound?
Answer: 292 mg/dL

Question: And the “Triglycerides Day 0” value (ob/ob mice [1])?
Answer: 107 mg/dL

Question: With CCOc1cc2c(cc1\C(=C/C=C/C(C)=C/C(=O)O)CC)C(C)=CCC2(C)C [Compound A-16, 7-(3-Ethoxy-5,5,8-trimethyl-5,6-dihydronaphthalen-2-yl)-3-methyl-nona-2E,4E,6Z-trienoic acid] as the compound, how does the “Glucose Day 3, 3 h” value (ob/ob mice [2]; [3]) read?
Answer: 297 mg/dL

Question: And the “Glucose Day 6, 3 h” value (ob/ob mice [2]; [3])?
Answer: 267 mg/dL

Question: And the “T4 Day 7” value (ob/ob mice [2]; [3])?
Answer: 4.2 µg/dL

Question: And the “Triglycerides Day 3, 3 h” value (ob/ob mice [2]; [3])?
Answer: 121 mg/dL

Question: And the “Glucose Day 0” value (ob/ob mice [2]; [3])?
Answer: 443 mg/dL

Question: And the “Triglycerides Day 0” value (ob/ob mice [2]; [3])?
Answer: 160 mg/dL

Question: With CCOc1cc2c(cc1\C(C)=C(F)/C=C/C(C)=C/C(=O)O)C=CCC2(C)C [Compound A-76, (2E,4E,6E)-7-(3-Ethoxy-5,5-dimethyl-5,6-dihydro-naphthalen-2-yl)-6-fluoro-3-methyl-octa-2,4.6-trienoic acid] as the compound, how does the EC50 (RARγ) read?
Answer: > 10 µM

Question: How did the EC50 (RARγ) turn out when CCOc1cc2c(cc1\C(CC)=C(F)/C=C/C(C)=C/C(=O)O)C=CCC2(C)C [Compound A-77] was run?
Answer: 0.002 µM

Question: With CCOc1c(\C(CC)=C(F)/C=C/C(C)=C/C(=O)O)cc2c(c1Br)C(C)(C)CC=C2C(C)C [Compound A-170, (2E,4E,6E)-7-(4-Bromo-3-ethoxy-8-isopropyl-5,5-dimethyl-5,6-dihydro-naphthalen-2-yl)-6-fluoro-3-methyl-nona-2,4,6-trienoic acid] as the compound, how does the “Glucose Day 3, 3 h” value (ob/ob mice [2]; [4]) read?
Answer: 294 mg/dL

Question: And the “Glucose Day 6, 3 h” value (ob/ob mice [2]; [4])?
Answer: 255 mg/dL

Question: What about the “T4 Day 7” value (ob/ob mice [2]; [4]) of the same compound?
Answer: 2.7 µg/dL

Question: What about the “Triglycerides Day 3, 3 h” value (ob/ob mice [2]; [4]) of the same compound?
Answer: 195 mg/dL

Question: And the “Glucose Day 0” value (ob/ob mice [2]; [4])?
Answer: 423 mg/dL

Question: What about the “Triglycerides Day 0” value (ob/ob mice [2]; [4]) of the same compound?
Answer: 168 mg/dL

Question: For CCOc1c(\C(CC)=C(F)/C=C/C(C)=C/C(=O)O)cc2c(c1Cl)C(C)(C)CC=C2C(C)C [Compound A-178, (2E,4E,6E)-7-(4-Chloro-3-ethoxy-8-isopropyl-5,5-dimethyl-5,6-dihydronaphthalen-2-yl)-6-fluoro-3-methyl-nona-2,4,6-trienoic acid], which EC50 (RARγ) is on record?
Answer: > 10 µM
